Measurements published in patent US20120328692A1, “POTENT D-PEPTIDE ANTAGONISTS OF MDM2 AND MDMX FOR ANTICANCER THERAPY” (UNIVERSITY OF MARYLAND, BALTIMORE, priority 2011, published 2012).
Each block holds one molecule with its values, some of them ahead of it.

How the values were obtained:
[1] = system: human glioma cell line U87 (wild type p53); assay: MTS cell viability assay, U87 cells; type: cell-based; conditions: three-day treatment, read-out: IC50 of growth inhibition
[2] = biological target: T1, ^synMDMX (^24-108MDMX, p53-binding domain of MDMX) (Homo sapiens, UniProt O15151); assay: competition SPR binding to synMDMX
T1 construct: MDMX (^24-108MDMX or syn MDMX); made in house; host or cells: chemical synthesis (inferred from the prefix 'syn'; no expression host named)
T1 sequence (O15151 24-108): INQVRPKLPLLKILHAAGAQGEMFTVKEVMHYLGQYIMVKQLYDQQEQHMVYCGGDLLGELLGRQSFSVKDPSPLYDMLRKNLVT

[3] = system: normal cells; conditions: cited from earlier work

IC50 [1]: 3.8 µM
Molecule: COc1ccc(C2=N[C@@H](c3ccc(Cl)cc3)[C@@H](c3ccc(Cl)cc3)N2C(=O)N2CCNC(=O)C2)c(OC(C)C)c1 [Nutlin-3]

Kd [2]: 4.9 µM
Molecule: CC(C)C[C@@H](NC(=O)[C@H]1CCCN1C(=O)[C@@H](Cc1c[nH]c2ccccc12)NC(=O)[C@@H](Cc1c[nH]c2ccccc12)NC(=O)[C@H](N)CC(=O)O)C(=O)N[C@H](C)C(=O)N[C@H](Cc1ccccc1)C(=O)N[C@H](CCC(=O)O)C(=O)N[C@H](C)C(=O)N[C@H](CC(C)C)C(=O)N[C@H](CC(C)C)C(=O)N[C@H](CCCNC(=N)N)C(=O)O [^DPMI-γ]

Molecule: MI-219
activation of the p53 pathway (accumulation of p53, increased MDM2 and p21) [3]: transient activation of the p53 pathway | expression of PUMA and apoptosis [3]: fails to induce the expression of PUMA and apoptosis
